Eleven compounds from patent US10519116B2, “Water-soluble pyrazole derivatives as corrosion inhibitors” (Ecolab USA Inc., priority 2015, dated 2019) can be followed below.

Converted amounts (≈) assume the structure as drawn. Some results are limits rather than exact numbers.

One series concerns Oncorhynchus mykiss. Kind of series: in vivo. The settings on record: 96-hour definitive toxicity test. As for the experimental part:
(§1) The aquatic toxicity of (1H-pyrazol-1-yl)methanol toward a variety of species was analyzed. (1H-pyrazol-1-yl)methanol had lower aquatic toxicity than many commonly used corrosion inhibitors.

The nature of a further series: in vivo. The following applies: in vivo; 96-hour definitive toxicity test. The procedure: as §1
Series [1] deals with Pseudokirchneriella subcapita. Kind of series: Chronic 72-Hour Green Algal Growth Test. In kind it is in vivo. The following applies: 72-hour chronic green algal growth test. The procedure:
as §1

Series [2] in a line: Copper corrosion rate by linear polarization resistance measurements. The following applies: copper coupons, 5 ppm inhibitor, pH 7.0, 45° C.; for No FRC Corrosion Rate: absence of bleach, average over 24 hour period; for 1 ppm FRC Corrosion Rate: bleach added to keep FRC at 1 ppm. As for the experimental part: The corrosion rate of copper in the presence of (1H-pyrazol-1-yl)methanol, (3,5-dimethyl-1H-pyrazol-1-yl)methanol, (3,5-dimethyl-1H-pyrazol-1-yl)(phenyl)methanol, 1-(3,5-dimethyl-1H-pyrazol-1-yl)ethan-1-ol, 2-(1H-pyrazol-1-yl)ethan-1-ol, 3-phenyl-1H-pyrazole, 4-chloro-3,5-dimethyl-1H-pyrazole, and 3,5-dimethylpyrazole was determined using linear polarization resistance measurements. In addition, the corrosion rate of copper in the presence of pyrazole, 1-ethyl-1H-pyrazole, and tolyltriazole was determined using linear polarization resistance measurements. (1H-Pyrazol-1-yl)methanol, (3,5-dimethyl-1H-pyrazol-1-yl)methanol, (3,5-dimethyl-1H-pyrazol-1-yl)(phenyl)methanol, 4-chloro-3,5-dimethyl-1H-pyrazole, and 1-(3,5-dimethyl-1H-pyrazol-1-yl)ethan-1-ol were prepared by Applicants. Pyrazole, 3,5-dimethylpyrazole, 2-(1H-pyrazol-1-yl)ethan-1-ol, and 1-ethyl-1H-pyrazole were purchased from TCI America. 3-Phenyl-1H-pyrazole and tolyltriazole were purchased from Sigma-Aldrich (St. Louis, Mo.).
For each experiment, cylindrical copper coupons pre-polished using SIC 600 paper and fitted on a Pine rotator were immersed in a solution of corrosion inhibitor. The test solution comprised 470 ppm calcium, 230 ppm magnesium, 590 ppm chloride, 260 ppm sulfate, and 100 ppm alkalinity, as CaCO3. The pH of the test water was maintained at 7.0 using carbon dioxide, and the water temperature was maintained at 45° C. throughout the experiment.
The copper samples were immersed in 1 liter electrochemical cells comprising a 5 ppm inhibitor solution, and the Rp (polarization resistance) was recorded over a 24 hour period. The analysis was conducted using the following testing conditions: Initial E: −0.02V; Final E: +0.02V; Scan rate: 0.5 mV/s; Sample period: 1 second; Repeat time: 15 minutes; Sample area: 5 cm^2; Density: 8.92 g/cm^3; Copper Eq. Weight: 63.54 g; and Initial delay: 30 seconds.
Next, the copper samples were exposed to 1 ppm FRC by adding a few drops of 4% bleach solution to the electrolyte solution. After the FRC reached 1 ppm, the copper samples were analyzed. Throughout the analysis, the bleach solution was added intermittently to maintain the FRC at 1 ppm. The Rp in the absence and presence of bleach was collected and analyzed, and the average corrosion rate was calculated and recorded in Table 1. Corrosion rates were calculated in mils per year (mpy). FIGS. 1-3 display data plots for compounds 1, 3, 5, 6, and 9.

The nature of series [3]: Turbidity of 2% aqueous solutions at various pH levels (solubility). In kind it is physicochemical. The settings on record: judged from turbidity at a wide range of pH levels. The procedure: Solutions comprising (1H-pyrazol-1-yl)methanol and 3,5-dimethylpyrazole at various pH levels were prepared by dissolving the corresponding pyrazole (2 grams) in deionized water (98 grams). The solutions were adjusted to the desired pH by adding dilute sulfuric acid or aqueous sodium hydroxide (1 N). The turbidity of each solution was measured using a HACH 2100Q Portable Turbidimeter.

Series [4] in a line: Ceriodaphnia dubia 48-Hour Definitive Toxicity Test. In kind it is in vivo. The following applies: Ceriodaphnia dubia, in vivo, other: aquatic exposure (compound in the test water). The procedure: as §1
For another series, the system named is Ceriodaphnia dubia. The description is as above. In kind it is in vivo. The procedure: as §1

The LC50 is the concentration that kills 50% of the test population. The IC50 is the concentration needed to halve the response being measured. The low end stands for inhibition by little substance, the high end for a need for much substance. As for `OCn1cccn1` [Compound 1, (1H-pyrazol-1-yl)methanol], in the series with Oncorhynchus mykiss, the LC50 was greater than 100 µg/mL and the “NOEC (survival)” value is listed as 50 mg/L. The median lethal concentration (LC50) at 96 h in “in vivo” was greater than 100 µg/mL. Also, in series [1], the IC50 amounted to 3.83 µg/mL (≈ 39 µM) and the “NOEC (survival)” value was 2.5 mg/L. Moreover, in series [2], the “No FRC Corrosion Rate” value was 0.0057 mpy and the “1 ppm FRC Corrosion Rate” value amounted to 0.0296 mpy. For the same compound, the “No FRC Corrosion Rate” value in series [2] (listed as (1H-pyrazol-1-yl)methanol) is on record as 0.0057 mpy. Also, in series [3], the water solubility entry is given as “water soluble”. The median lethal concentration (LC50) at 48 h in series [4] was 31.5 µg/mL (≈ 321 µM). Further, the “NOEC (survival)” value in the series with Ceriodaphnia dubia is 13 mg/L.
For the compound `Cc1cc(C)n(C(O)c2ccccc2)n1` (centres unmarked) [Compound 2, (3,5-dimethyl-1H-pyrazol-1-yl)(phenyl)methanol], in series [2], the “No FRC Corrosion Rate” value worked out at 0.0043 mpy and the “1 ppm FRC Corrosion Rate” value was 0.0479 mpy.
Taken in the same sequence, the figures for `Cc1cc(C)n(C(C)O)n1` (centres unmarked) [Compound 3, 1-(3,5-dimethyl-1H-pyrazol-1-yl)ethan-1-ol] were 0.0036 mpy and 0.0142 mpy.
Turning to `OCCn1cccn1` [Compound 4, 2-(1H-pyrazol-1-yl)ethan-1-ol], in series [2], the “No FRC Corrosion Rate” value turned out to be 0.0212 mpy and the “1 ppm FRC Corrosion Rate” value amounted to 0.2739 mpy.
For `Cc1cc(C)n(CO)n1` [Compound 5, (3,5-dimethyl-1H-pyrazol-1-yl)-methanol] the same measures were 0.0197 mpy and 0.0228 mpy.
On to `Cc1cc(C)[nH]n1` [Compound 6, 3,5-dimethylpyrazole], for which, in series [2], the “No FRC Corrosion Rate” value is given as 0.0396 mpy and the “1 ppm FRC Corrosion Rate” value is listed as 0.0599 mpy. Further, the water solubility entry in series [3] is recorded as “water soluble”.
On to `Cc1n[nH]c(C)c1Cl` [Compound 7, 4-chloro-3,5-dimethyl-1H-pyrazole], for which, in series [2], the “No FRC Corrosion Rate” value is given as 0.0025 mpy and the “1 ppm FRC Corrosion Rate” value worked out at 0.0212 mpy.
Taken in the same sequence, the figures for `c1ccc(-c2cc[nH]n2)cc1` [Compound 8, 3-phenyl-1H-pyrazole] were 0.0039 mpy and 0.0916 mpy.
Taken in the same sequence, the figures for `c1cn[nH]c1` [Compound 9, Pyrazole] were 0.4232 mpy and 0.1666 mpy.
Taken in the same sequence, the figures for `CCn1cccn1` [Compound 10, 1-ethyl-1H-pyrazole, reference compound] were 0.0345 mpy and 0.5932 mpy.
On to “Tolyltriazole [Compound 11, reference compound]”, for which, in series [2], the “No FRC Corrosion Rate” value was 0.0214 mpy and the “1 ppm FRC Corrosion Rate” value came out at 0.0995 mpy.
